Assay results: US5696164A, “Antifungal treatment of nails” (Johnson & Johnson Consumer Products, Inc., priority 1994, dated 1997)
Values after ≈ are worked out from the molar mass of the structure shown. Counter-ions that a name gives are not always drawn.

Legend:
[1] = Effect of urea on nail swelling/hydration in aqueous urea solutions; design: species or system human; settings: pH 4.5
Method: (§1) The experimental procedure was the following: Clean human nail clippings were equilibrated to a constant weight by placing them in a desiccator over saturated CaCl2.6H2 O solution (29% relative humidity at room temperature) for at least 48 hours before use. Approximately 30 mg of human nail clippings were weighed into a glass vial. The exact initial weight was recorded. Four grams of the test formulation (pre-warmed to 32° C.) was added into the vial and maintained at 32° C. under stirring in a Heating/Stirring Module (Reacti-Therm III, Pierce). The changes in nail weights were monitored at predetermined intervals over 48 hours. At the end of the swelling experiment, the nail sample was rinsed with a mixture of N,N-dimethylformamide and methanol (1:1) to remove surface-bound drug. The nail sample was then digested, and the drug concentration in nail was determined by high pressure liquid chromatography method as described by Badcock and Davies, Assay of itraconazole in nail clippings by reversed phase, high performance liquid chromatography, Ann. Clin. Biochem, 27 (1990) 506-508.
The effect of urea on nail swelling was investigated, using aqueous urea solutions of various concentrations at pH 4.5. […] For this reason, it is believed that the use of urea alone will not cause significant enhancement of drug permeation through the nail.

[2] = prior to topical treatment of onychomycosis; cited from earlier work
[3] = Nail swelling-pH profile (urea/propylene carbonate/propylene glycol/N-acetyl-l-cysteine/water); design: species or system human; settings: FIG. 8; pH 3.2-7.0, 32 °C
Method: as §1
It should be noted that, unlike the itraconazole formulations discussed above, which were tested at pH 3, the pH value of the miconazole nitrate formulation was set at pH 9. […] This was confirmed by the swelling-pH profile shown in FIG. 8, using the following formulation: […]

[4] = rats; skin pretreated with aqueous calcium thioglycolate solution; cited from earlier work
[5] = Nail swelling in miconazole nitrate cream formulation; design: species or system human; settings: FIG. 7; 1% miconazole nitrate, 20% urea, 10% N-acetyl-l-cysteine cream, pH 9.0
Method: as §1
(§2) A nail swelling and drug partitioning experiment was also conducted for miconazole nitrate using procedures analogous to those described above. […]

[6] = Miconazole nitrate partitioning into nail; format: in vitro ADME, human; settings: FIG. 7; 1% miconazole nitrate, 20% urea, 10% N-acetyl-l-cysteine cream, pH 9.0
Method: as §1, §2

[7] = after nail avulsion; cited from earlier work
[8] = Nail swelling of human nail clippings in itraconazole formulations; settings: FIG. 3a, 32 °C, 48 h
Method: The experimental procedure was the following: Clean human nail clippings were equilibrated to a constant weight by placing them in a desiccator over saturated CaCl2.6H2 O solution (29% relative humidity at room temperature) for at least 48 hours before use. Approximately 30 mg of human nail clippings were weighed into a glass vial. The exact initial weight was recorded. Four grams of the test formulation (pre-warmed to 32° C.) was added into the vial and maintained at 32° C. under stirring in a Heating/Stirring Module (Reacti-Therm III, Pierce). The changes in nail weights were monitored at predetermined intervals over 48 hours. […]
The nail swelling was expressed by the percentage of the initial nail weight (i.e., 100% of the initial nail weight means no swelling, and 200% means a nail swelling doubling the original weight, etc). An enhancement factor is used to show the increase in nail swelling due to the presence of nail penetration enhancer in comparison to the control, which were calculated according to the formula: enhancement factor=(% weight gain of the test nail sample)/(% weight gain of control nail sample, i.e., no enhancer & urea in the formulation). […] The drug concentration in nail was calculated by dividing the amount of the drug in nail (mg) by the weight of the initial nail clipping (i.e., dry nail weight in gram). […]

[9] = calcium thioglycolate added directly into ointment; cited from earlier work
[10] = system: dermatophites; settings: "as low as"; cited from earlier work
[11] = system: yeasts; settings: "as low as"; cited from earlier work
[12] = as the formulation pH increases; cited from earlier work

Compound: NC(N)=O [urea]
- nail hydration ([1]; 20% aqueous urea): 30%
- nail hydration ([1]; 40% aqueous urea): 50%
- results of nonsurgical avulsion of nail dystrophies [2]: satisfactory results

Compound: CC(=O)N[C@@H](CS)C(=O)O [N-acetyl-l-cysteine, N-Acetyl-l-cysteine]
- working pH range [3]: wide working pH range

Compound: insulin
- transdermal drug permeation [4]: enhanced transdermal drug permeation

Compound: Clc1ccc(COC(Cn2ccnc2)c2ccc(Cl)cc2Cl)c(Cl)c1 (centres unmarked) [miconazole nitrate]
- nail swelling [5]: significant nail swelling
- miconazole partitioning into the nail [6]: substantial miconazole partitioning into the nail

Compound: CC(=O)N1CCN(c2ccc(OCC3COC(Cn4ccnc4)(c4ccc(Cl)cc4Cl)O3)cc2)CC1 (centres unmarked) [ketoconazole]
- efficacy in topically treating onychomycosis [7]: effective

Compound: N[C@@H](CS)C(=O)O [l-cysteine]
- rank of nail swelling enhancement [8]: highest nail swelling enhancement

Compound: COc1ccc2c(c1)c(CC(=O)O)c(C)n2C(=O)c1ccc(Cl)cc1 [calcium salt of indomethacin, indomethacin]
- drug absorption [9]: dramatically decreased the absorption

Compound: Clc1ccc(COC(Cn2ccnc2)c2ccc(Cl)cc2Cl)c(Cl)c1 (centres unmarked) [miconazole]
- efficacy in topically treating onychomycosis [7]: effective

Compound: CCC(C)n1ncn(-c2ccc(N3CCN(c4ccc(OCC5COC(Cn6cncn6)(c6ccc(Cl)cc6Cl)O5)cc4)CC3)cc2)c1=O (centres unmarked) [itraconazole]
- minimal inhibitory concentration (MIC) [10]: 0.1 mg/L (≈ 0.142 µM)
- minimal inhibitory concentration (MIC) [11]: 0.1 mg/L (≈ 0.142 µM)
- solubility versus formulation pH [12]: decreases
